Reference: PubChem BioAssay AID248 (DTP/NCI, 2004)
Inconclusive results and toxic doses are left out.

Tested on: L1210 leukemia ip in BDF1 mice, survival T/C
Assay: NCI In Vivo Anticancer Drug Screen. Data for tumor model L1210 Leukemia (intraperitoneal) in B6D2F1 (BDF1) mice
Settings: endpoint: mean survival time, higher = longer survival
Outline: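 Value reflects the ratio of survival in compound-treated mice to survival in vehicle-treated controls, with both groups carrying the same transplanted tumor.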

[1] = dose: 6.25 mg/kg/injection, schedule: Q01DX009 (ip), vehicle: saline
[2] = dose: 50.0 mg/kg/injection, schedule: Q01DX009 (ip), vehicle: saline
[3] = dose: 100.0 mg/kg/injection, schedule: Q04DX003 (ip), vehicle: saline
[4] = dose: 100.0 mg/kg/injection, schedule: Q01DX009 (ip), vehicle: Klucel (hydroxypropylcellulose) (HPC)
[5] = dose: 200.0 mg/kg/injection, schedule: Q01DX009 (ip), vehicle: Klucel (hydroxypropylcellulose) (HPC)
[6] = dose: 100.0 mg/kg/injection, schedule: Q04DX002 (ip), vehicle: saline with Tween-80
[7] = dose: 200.0 mg/kg/injection, schedule: Q04DX002 (ip), vehicle: saline with Tween-80
[8] = dose: 400.0 mg/kg/injection, schedule: Q04DX002 (ip), vehicle: saline with Tween-80
[9] = dose: 100.0 mg/kg/injection, schedule: Q01DX009 (ip), vehicle: saline with Tween-80
[10] = dose: 200.0 mg/kg/injection, schedule: Q01DX009 (ip), vehicle: saline with Tween-80

Compound: N=c1ccc2nc3ccc(N)cc3sc-2c1
- T/C [1]: 104 % of control
- T/C (dose: 6.25 mg/kg/injection, schedule: Q04DX003 (ip), vehicle: saline): 100 % of control
- T/C (dose: 12.5 mg/kg/injection, schedule: Q01DX009 (ip), vehicle: saline): 106 % of control
- T/C (dose: 12.5 mg/kg/injection, schedule: Q04DX003 (ip), vehicle: saline): 96 % of control
- T/C (dose: 25.0 mg/kg/injection, schedule: Q01DX009 (ip), vehicle: saline): 112 % of control
- T/C (dose: 25.0 mg/kg/injection, schedule: Q04DX003 (ip), vehicle: saline): 107 % of control
- T/C [2]: 98 % of control
- T/C (dose: 50.0 mg/kg/injection, schedule: Q04DX003 (ip), vehicle: saline): 105 % of control
- T/C [3]: 105 % of control

Compound: COC(=O)c1nnn(CN(CN(CN(Cn2nnc(C(=O)OC)c2C(=O)OC)[N+](=O)[O-])[N+](=O)[O-])[N+](=O)[O-])c1C(=O)OC
- T/C (dose: 75.0 mg/kg/injection, schedule: Q01DX001 (ip), vehicle: Klucel (hydroxypropylcellulose) (HPC)): 108 % of control
- T/C (dose: 150.0 mg/kg/injection, schedule: Q01DX001 (ip), vehicle: Klucel (hydroxypropylcellulose) (HPC)): 100 % of control
- T/C (dose: 300.0 mg/kg/injection, schedule: Q01DX001 (ip), vehicle: Klucel (hydroxypropylcellulose) (HPC)): 110 % of control

Compound: COCC(O)C(OC)C(OC)C(C=O)NC(=O)N(CCCl)N=O (centres undefined)
- T/C (dose: 14.0 mg/kg/injection, schedule: Q01DX001 (ip), vehicle: saline with Tween-80): 159 % of control
- T/C (dose: 22.0 mg/kg/injection, schedule: Q01DX001 (ip), vehicle: saline with Tween-80): 181 % of control
- T/C (dose: 33.5 mg/kg/injection, schedule: Q01DX001 (ip), vehicle: saline with Tween-80): 331 % of control
- T/C (dose: 50.0 mg/kg/injection, schedule: Q01DX001 (ip), vehicle: saline with Tween-80): 431 % of control
- T/C (dose: 75.0 mg/kg/injection, schedule: Q01DX001 (ip), vehicle: saline with Tween-80): 489 % of control
- T/C (dose: 112.0 mg/kg/injection, schedule: Q01DX001 (ip), vehicle: saline with Tween-80): 227 % of control

Compound: O=[N+]([O-])c1ccc(NN=C(C2CC2)C2CC2)c([N+](=O)[O-])c1
- T/C (dose: 100.0 mg/kg/injection, schedule: Q01DX001 (ip), vehicle: other): 95 % of control
- T/C (dose: 200.0 mg/kg/injection, schedule: Q01DX001 (ip), vehicle: other): 98 % of control
- T/C (dose: 400.0 mg/kg/injection, schedule: Q01DX001 (ip), vehicle: other): 88 % of control

Compound: S=c1[nH]ncn1-c1ccccc1
- T/C [4]: 92 % of control
- T/C [5]: 93 % of control

Compound: COC(=O)C1OC1c1ccccc1OC (centres undefined)
- T/C (dose: 100.0 mg/kg/injection, schedule: Q01DX001 (ip), vehicle: saline): 105 % of control
- T/C (dose: 200.0 mg/kg/injection, schedule: Q01DX001 (ip), vehicle: saline): 102 % of control
- T/C (dose: 400.0 mg/kg/injection, schedule: Q01DX001 (ip), vehicle: saline): 109 % of control

Compound: O=P(Nc1ccccc1)(N1CCCCC1)N1CCCCC1
- T/C [6]: 101 % of control
- T/C [7]: 101 % of control
- T/C [8]: 108 % of control

Compound: CCCCCCCCCC(=O)Nc1cccc(C)c1C
- T/C (dose: 100.0 mg/kg/injection, schedule: Q04DX002 (ip), vehicle: Klucel (hydroxypropylcellulose) (HPC)): 105 % of control
- T/C (dose: 200.0 mg/kg/injection, schedule: Q04DX002 (ip), vehicle: Klucel (hydroxypropylcellulose) (HPC)): 94 % of control
- T/C (dose: 400.0 mg/kg/injection, schedule: Q04DX002 (ip), vehicle: Klucel (hydroxypropylcellulose) (HPC)): 94 % of control

Compound: Cc1ccc([N+](=O)[O-])cc1NC(=O)OCc1ccco1
- T/C [4]: 103 % of control
- T/C [5]: 97 % of control
- T/C (dose: 400.0 mg/kg/injection, schedule: Q01DX009 (ip), vehicle: Klucel (hydroxypropylcellulose) (HPC)): 94 % of control

Compound: C=C(Cl)COC(=O)C(C)O (centres undefined)
- T/C (dose: 25.0 mg/kg/injection, schedule: Q01DX001 (ip), vehicle: Klucel (hydroxypropylcellulose) (HPC)): 98 % of control
- T/C (dose: 50.0 mg/kg/injection, schedule: Q01DX001 (ip), vehicle: Klucel (hydroxypropylcellulose) (HPC)): 96 % of control
- T/C (dose: 100.0 mg/kg/injection, schedule: Q01DX001 (ip), vehicle: Klucel (hydroxypropylcellulose) (HPC)): 100 % of control

Compound: c1ccc(C[n+]2ccc(-c3cc[n+](Cc4ccccc4)cc3)cc2)cc1
- T/C (dose: 5.0 mg/kg/injection, schedule: Q01DX001 (ip), vehicle: saline): 109 % of control

Compound: [O-][n+]1ccccc1Cc1ccccc1
- T/C (dose: 50.0 mg/kg/injection, schedule: Q01DX009 (ip), vehicle: saline with Tween-80): 90 % of control
- T/C [9]: 90 % of control
- T/C [6]: 97 % of control
- T/C [10]: 90 % of control
- T/C [7]: 101 % of control
- T/C [8]: 101 % of control

Compound: NCCc1cc2c3c(c1)CCCN3CCC2
- T/C (dose: 0.78 mg/kg/injection, schedule: Q01DX009 (ip), vehicle: saline): 95 % of control
- T/C (dose: 1.56 mg/kg/injection, schedule: Q01DX009 (ip), vehicle: saline): 102 % of control
- T/C (dose: 3.12 mg/kg/injection, schedule: Q01DX009 (ip), vehicle: saline): 91 % of control
- T/C [1]: 97 % of control
- T/C (dose: 12.5 mg/kg/injection, schedule: Q01DX001 (ip), vehicle: saline): 100 % of control
- T/C (dose: 25.0 mg/kg/injection, schedule: Q01DX001 (ip), vehicle: saline): 94 % of control

Compound: NC(N)=NCCCS(=O)(=O)Nc1ccc(Nc2c3ccccc3nc3cc([N+](=O)[O-])ccc23)cc1
- T/C (dose: 3.0 mg/kg/injection, schedule: Q01DX009 (ip), vehicle: water): 186 % of control
- T/C (dose: 6.0 mg/kg/injection, schedule: Q01DX009 (ip), vehicle: water): 160 % of control
- T/C (dose: 6.25 mg/kg/injection, schedule: Q04DX002 (ip), vehicle: saline with Tween-80): 102 % of control
- T/C (dose: 6.25 mg/kg/injection, schedule: Q04DX003 (ip), vehicle: water): 186 % of control
- T/C (dose: 12.5 mg/kg/injection, schedule: Q04DX002 (ip), vehicle: saline with Tween-80): 120 % of control
- T/C (dose: 25.0 mg/kg/injection, schedule: Q04DX002 (ip), vehicle: saline with Tween-80): 124 % of control
- T/C (dose: 50.0 mg/kg/injection, schedule: Q04DX003 (ip), vehicle: water): 161 % of control
- T/C [6]: 150 % of control
- T/C [7]: 183 % of control

Compound: CCOC(=O)C(N)CSCc1ccccc1 (centres undefined)
- T/C [9]: 97 % of control
- T/C [10]: 92 % of control
- T/C (dose: 400.0 mg/kg/injection, schedule: Q01DX009 (ip), vehicle: saline with Tween-80): 97 % of control

Compound: CC(C)(C)CC(C)(C)c1ccc(OCCOCCOc2ccc([N+](=O)[O-])cc2)cc1
- T/C (dose: 100.0 mg/kg/injection, schedule: Q01DX009 (ip), vehicle: saline sonified): 94 % of control
- T/C (dose: 200.0 mg/kg/injection, schedule: Q01DX009 (ip), vehicle: saline sonified): 96 % of control
- T/C (dose: 400.0 mg/kg/injection, schedule: Q01DX009 (ip), vehicle: saline sonified): 94 % of control

Compound: Cc1cccc(Br)[n+]1[O-]
- T/C [2]: 110 % of control
- T/C (dose: 100.0 mg/kg/injection, schedule: Q01DX009 (ip), vehicle: saline): 112 % of control
- T/C [3]: 102 % of control
- T/C (dose: 200.0 mg/kg/injection, schedule: Q04DX003 (ip), vehicle: saline): 97 % of control

Compound: O=C(CCl)c1ccc(Oc2ccccc2)cc1
- T/C (dose: 20.0 mg/kg/injection, schedule: Q01DX009 (ip), vehicle: Klucel (hydroxypropylcellulose) (HPC)): 103 % of control
- T/C (dose: 20.0 mg/kg/injection, schedule: Q04DX003 (ip), vehicle: Klucel (hydroxypropylcellulose) (HPC)): 107 % of control
- T/C (dose: 40.0 mg/kg/injection, schedule: Q01DX009 (ip), vehicle: Klucel (hydroxypropylcellulose) (HPC)): 100 % of control
- T/C (dose: 40.0 mg/kg/injection, schedule: Q04DX003 (ip), vehicle: Klucel (hydroxypropylcellulose) (HPC)): 104 % of control
- T/C (dose: 80.0 mg/kg/injection, schedule: Q04DX003 (ip), vehicle: Klucel (hydroxypropylcellulose) (HPC)): 105 % of control
- T/C (dose: 100.0 mg/kg/injection, schedule: Q04DX003 (ip), vehicle: Klucel (hydroxypropylcellulose) (HPC)): 89 % of control

Compound: COc1c2c(c3c(c1O)c(=O)c1ccccc1n3C)OCO2
- T/C (dose: 50.0 mg/kg/injection, schedule: Q01DX001 (ip), vehicle: carboxymethylcellulose (CMC)): 104 % of control
- T/C (dose: 100.0 mg/kg/injection, schedule: Q01DX001 (ip), vehicle: carboxymethylcellulose (CMC)): 90 % of control
- T/C (dose: 200.0 mg/kg/injection, schedule: Q01DX001 (ip), vehicle: carboxymethylcellulose (CMC)): 90 % of control
